Laboratory results from US20240043404A1 (AbbVie Inc., priority 2009, published 2024).
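Note: acute lymphoblastic leukemia line RS4,11, EC50 derived from percentage of viable cells after treatment relative to untreated controls, cell killing taken as a measure of Bcl-2 inhibition.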

Each compound was assayed on RS4;11 cells (assay: RS4;11 cell viability assay (CellTiter Glo)). Conditions: Homo sapiens, RS4-11, 48 h, 50,000 cells per well, 10% human serum, 48 hours; read-out: RS4; 11 EC50 Values.
Format: cell-based, human
Protocol: The acute lymphoblastic leukemia (ALL) cell line RS4;11 was used as the primary human cell line to assess the cellular activity of Bcl-2 selective agents in vitro and their efficacy in vivo.
Cell cytotoxicity EC50 values were assessed using CellTiter Glo (Promega) according to the manufacturer's recommendations. The EC50 values were determined as a percentage of viable cells following treatment compared to the untreated control cells.
`CC1(C)CCC(CN2CCN(c3ccc(C(=O)NS(=O)(=O)c4ccc(NCCCN(Cc5cncs5)C5CC5)c([N+](=O)[O-])c4)c(Oc4cnc5[nH]ccc5c4)c3)CC2)=C(c2ccc(Cl)cc2)C1` [Example 304, 4-(4-{[2-(4-chlorophenyl)-4,4-dimethylcyclohex-1-en-1-yl]methyl}piperazin-1-yl)-N-{[4-({3-[cyclopropyl(1,3-thiazol-5-ylmethyl)amino]propyl}amino)-3-nitrophenyl]sulfonyl}-2-(1H-pyrrolo[2,3-b]pyridin-5-yloxy)benzamide] gave an EC50 of 298 nM.
Work on `CC1(C)CC(c2ccc(Cl)cc2)=C(CN2CCN(c3ccc(C(=O)NS(=O)(=O)c4ccc(OCC5COCCO5)c([N+](=O)[O-])c4)c(Oc4cnc5[nH]ccc5c4)c3)CC2)CO1` (stereo not shown) [Example 32, 4-(4-{[4-(4-chlorophenyl)-6,6-dimethyl-5,6-dihydro-2H-pyran-3-yl]methyl}piperazin-1-yl)-N-{[4-(1,4-dioxan-2-ylmethoxy)-3-nitrophenyl]sulfonyl}-2-(1H-pyrrolo[2,3-b]pyridin-5-yloxy)benzamide] yielded an EC50 of 81.5 nM.
`CC1(C)CCC(CN2CCN(c3ccc(C(=O)NS(=O)(=O)c4ccc(OC[C@@H]5COCCO5)c([N+](=O)[O-])c4)c(Oc4cnc5[nH]ccc5c4)c3)CC2)=C(c2ccc(Cl)cc2)C1` [Example 28, 4-(4-{[2-(4-chlorophenyl)-4,4-dimethylcyclohex-1-en-1-yl]methyl}piperazin-1-yl)-N-({4-[(2S)-1,4-dioxan-2-ylmethoxy]-3-nitrophenyl}sulfonyl)-2-(1H-pyrrolo[2,3-b]pyridin-5-yloxy)benzamide] gave an EC50 of 41.9 nM.
In the case of `CC1(C)CCC(CN2CCN(c3ccc(C(=O)NS(=O)(=O)c4ccc(NCC5COCCN5C5CCOC5)c([N+](=O)[O-])c4)c(Oc4cnc5[nH]ccc5c4)c3)CC2)=C(c2ccc(Cl)cc2)C1` (stereo not shown) [Example 171, 4-(4-{[2-(4-chlorophenyl)-4,4-dimethylcyclohex-1-en-1-yl]methyl}piperazin-1-yl)-N-[(3-nitro-4-{[(4-tetrahydrofuran-3-ylmorpholin-3-yl)methyl]amino}phenyl)sulfonyl]-2-(1H-pyrrolo[2,3-b]pyridin-5-yloxy)benzamide], the EC50 is reported as 52.7 nM.
`CC1(C)CCC(CN2CCN(c3ccc(C(=O)NS(=O)(=O)c4ccc(NCc5ccc(OCCN6CCOCC6)cc5)c([N+](=O)[O-])c4)c(Oc4cnc5[nH]ccc5c4)c3)CC2)=C(c2ccc(Cl)cc2)C1` [Example 198, 4-(4-{[2-(4-chlorophenyl)-4,4-dimethylcyclohex-1-en-1-yl]methyl}piperazin-1-yl)-N-[(4-{[4-(2-morpholin-4-ylethoxy)benzyl]amino}-3-nitrophenyl)sulfonyl]-2-(1H-pyrrolo[2,3-b]pyridin-5-yloxy)benzamide] gave an EC50 of 36.2 nM.
Work on `CC1(C)CCC(CN2CCN(c3ccc(C(=O)NS(=O)(=O)c4ccc(OCC5CCOC5)c(Cl)c4)c(Oc4cnc5[nH]ccc5c4)c3)CC2)=C(c2ccc(Cl)cc2)C1` (stereo not shown) [Example 323, 4-(4-{[2-(4-chlorophenyl)-4,4-dimethylcyclohex-1-en-1-yl]methyl}piperazin-1-yl)-N-{[3-chloro-4-(tetrahydrofuran-3-ylmethoxy)phenyl]sulfonyl}-2-(1H-pyrrolo[2,3-b]pyridin-5-yloxy)benzamide] yielded an EC50 of 717 nM.
For `O=C(NS(=O)(=O)c1cnc(OCC2(F)CCN(C3COC3)CC2)c(Cl)c1)c1ccc(N2CCN(CC3=C(c4ccc(Cl)cc4)CC4(CC3)CC4)CC2)cc1Oc1cnc2[nH]ccc2c1` [Example 345, N-[(5-chloro-6-{[4-fluoro-1-(oxetan-3-yl)piperidin-4-yl]methoxy}pyridin-3-yl)sulfonyl]-4-(4-{[5-(4-chlorophenyl)spiro[2.5]oct-5-en-6-yl]methyl}piperazin-1-yl)-2-(1H-pyrrolo[2,3-b]pyridin-5-yloxy)benzamide], the EC50 was 9.25 nM.
For `CC1(C)CCC(CN2CCN(c3ccc(C(=O)NS(=O)(=O)c4cnc(OCC5CCN(c6nccs6)CC5)c(Cl)c4)c(Oc4cnc5[nH]ccc5c4)c3)CC2)=C(c2ccc(Cl)cc2)C1` [Example 375, 4-(4-{[2-(4-chlorophenyl)-4,4-dimethylcyclohex-1-en-1-yl]methyl}piperazin-1-yl)-N-[(5-chloro-6-{[1-(1,3-thiazol-2-yl)piperidin-4-yl]methoxy}pyridin-3-yl)sulfonyl]-2-(1H-pyrrolo[2,3-b]pyridin-5-yloxy)benzamide], the EC50 was 560 nM.
`COCC(C)(C)CNc1ccc(S(=O)(=O)NC(=O)c2ccc(N3CCN(CC4=C(c5ccc(Cl)cc5)CC(C)(C)CC4)CC3)cc2Oc2cnc3[nH]ccc3c2)cc1[N+](=O)[O-]` [Example 155, 4-(4-{[2-(4-chlorophenyl)-4,4-dimethylcyclohex-1-en-1-yl]methyl}piperazin-1-yl)-N-({4-[(3-methoxy-2,2-dimethylpropyl)amino]-3-nitrophenyl}sulfonyl)-2-(1H-pyrrolo[2,3-b]pyridin-5-yloxy)benzamide] showed an EC50 of 594 nM.
Work on `CC1(C)CCC(CN2CCN(c3ccc(C(=O)NS(=O)(=O)c4ccc(NCC5CN(CC(F)F)CCO5)c([N+](=O)[O-])c4)c(Oc4cnc5[nH]ccc5c4)c3)CC2)=C(c2ccc(Cl)cc2)C1` (stereo not shown) [Example 166, 4-(4-{[2-(4-chlorophenyl)-4,4-dimethylcyclohex-1-en-1-yl]methyl}piperazin-1-yl)-N-{[4-({[4-(2,2-difluoroethyl)morpholin-2-yl]methyl}amino)-3-nitrophenyl]sulfonyl}-2-(1H-pyrrolo[2,3-b]pyridin-5-yloxy)benzamide] yielded an EC50 of 11.8 nM.
With `CC1(C)CCC(CN2CCN(c3ccc(C(=O)NS(=O)(=O)c4ccc(NC5CCN([C@H]6CCOC[C@H]6F)CC5)c([N+](=O)[O-])c4)c(Oc4cnc5[nH]ccc5c4)c3)CC2)=C(c2ccc(Cl)cc2)C1` (relative stereo) [Example 115, 4-(4-{[2-(4-chlorophenyl)-4,4-dimethylcyclohex-1-en-1-yl]methyl}piperazin-1-yl)-N-{[4-({1-[cis-3-fluorotetrahydro-2H-pyran-4-yl]piperidin-4-yl}amino)-3-nitrophenyl]sulfonyl}-2-(1H-pyrrolo[2,3-b]pyridin-5-yloxy)benzamide] the EC50 was 11.8 nM.
`CC(=O)N1CCCC(CNc2ccc(S(=O)(=O)NC(=O)c3ccc(N4CCN(CC5=C(c6ccc(Cl)cc6)CC(C)(C)CC5)CC4)cc3Oc3cnc4[nH]ccc4c3)cc2[N+](=O)[O-])C1` (stereo not shown) [Example 148, N-[(4-{[(1-acetylpiperidin-3-yl)methyl]amino}-3-nitrophenyl)sulfonyl]-4-(4-{[2-(4-chlorophenyl)-4,4-dimethylcyclohex-1-en-1-yl]methyl}piperazin-1-yl)-2-(1H-pyrrolo[2,3-b]pyridin-5-yloxy)benzamide] showed an EC50 of 9.38 nM.
`CC1(C)CCC(CN2CCN(c3ccc(C(=O)NS(=O)(=O)c4ccc(N[C@@H]5CCN(CC(F)F)C5)c([N+](=O)[O-])c4)c(Oc4cnc5[nH]ccc5c4)c3)CC2)=C(c2ccc(Cl)cc2)C1` [Example 180, 4-(4-{[2-(4-chlorophenyl)-4,4-dimethylcyclohex-1-en-1-yl]methyl}piperazin-1-yl)-N-[(4-{[(3R)-1-(2,2-difluoroethyl)pyrrolidin-3-yl]amino}-3-nitrophenyl)sulfonyl]-2-(1H-pyrrolo[2,3-b]pyridin-5-yloxy)benzamide] gave an EC50 of 11.8 nM.
